Assay results from ChEMBL document CHEMBL4813954, “Dibenzodiazepinone-type muscarinic receptor antagonists conjugated to basic peptides: Impact of the linker moiety and unnatural amino acids on M2R selectivity” (Eur J Med Chem, 2021).

How the values were obtained:
[1] = target: T1, Muscarinic acetylcholine receptor M2 (Homo sapiens, UniProt P08172); assay: Displacement of [3H]-NMS from human muscarinic M2 receptor expressed in CHO cell membranes assessed as inhibition constant by radioligand competition analysis; set-up: species or system Cell membrane
T1 sequence (P08172 whole entry): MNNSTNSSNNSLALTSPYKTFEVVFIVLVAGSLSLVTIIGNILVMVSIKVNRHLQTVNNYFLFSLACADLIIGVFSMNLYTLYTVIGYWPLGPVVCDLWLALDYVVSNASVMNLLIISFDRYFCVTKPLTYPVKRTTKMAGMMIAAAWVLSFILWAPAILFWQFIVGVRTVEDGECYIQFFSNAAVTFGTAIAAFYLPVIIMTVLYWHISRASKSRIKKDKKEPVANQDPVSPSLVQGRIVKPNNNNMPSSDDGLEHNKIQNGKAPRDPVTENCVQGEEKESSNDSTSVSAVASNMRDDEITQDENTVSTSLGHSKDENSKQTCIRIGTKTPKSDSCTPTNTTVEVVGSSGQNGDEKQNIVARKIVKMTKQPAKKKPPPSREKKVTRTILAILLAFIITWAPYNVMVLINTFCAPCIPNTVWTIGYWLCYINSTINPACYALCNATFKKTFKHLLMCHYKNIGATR

[2] = target: Muscarinic acetylcholine receptors; M2 & M3 (Homo sapiens) (UniProt P20309+P08172); assay: Selectivity index, […] for displacement of [3H]NMS from human recombinant muscarinic receptor M3 expressed in CHO cell membranes […] for displacement of [3H]NMS from human recombinant muscarinic receptor M2 expressed in CHO cell membranes
[3] = target: T2, Muscarinic acetylcholine receptor M1 (Homo sapiens, UniProt P11229); assay: Displacement of [3H]-NMS from human muscarinic M1 receptor expressed in CHO cell membranes assessed as inhibition constant by radioligand competition analysis; set-up: species or system Cell membrane
T2 sequence (P11229 whole entry): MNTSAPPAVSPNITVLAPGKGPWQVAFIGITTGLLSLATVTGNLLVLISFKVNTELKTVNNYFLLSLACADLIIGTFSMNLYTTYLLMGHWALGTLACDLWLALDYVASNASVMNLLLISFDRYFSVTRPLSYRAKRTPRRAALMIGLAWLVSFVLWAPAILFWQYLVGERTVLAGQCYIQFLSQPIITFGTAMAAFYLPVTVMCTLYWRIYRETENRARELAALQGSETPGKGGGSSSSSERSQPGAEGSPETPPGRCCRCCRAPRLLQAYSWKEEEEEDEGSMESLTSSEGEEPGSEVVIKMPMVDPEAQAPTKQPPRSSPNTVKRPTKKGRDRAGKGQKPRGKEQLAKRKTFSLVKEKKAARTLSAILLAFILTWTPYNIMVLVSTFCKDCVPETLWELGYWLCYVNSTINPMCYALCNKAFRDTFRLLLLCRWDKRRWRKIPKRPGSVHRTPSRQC

[4] = target: Muscarinic acetylcholine receptor M3 (Homo sapiens, UniProt P20309); assay: Displacement of [3H]-NMS from human muscarinic M3 receptor expressed in CHO cell membranes assessed as inhibition constant by radioligand competition analysis; set-up: species or system Cell membrane
[5] = target: T3, Muscarinic acetylcholine receptor M4 (Homo sapiens, UniProt P08173); assay: Displacement of [3H]-NMS from human muscarinic M4 receptor expressed in CHO cell membranes assessed as inhibition constant by radioligand competition analysis; set-up: species or system Cell membrane
T3 sequence (P08173 whole entry): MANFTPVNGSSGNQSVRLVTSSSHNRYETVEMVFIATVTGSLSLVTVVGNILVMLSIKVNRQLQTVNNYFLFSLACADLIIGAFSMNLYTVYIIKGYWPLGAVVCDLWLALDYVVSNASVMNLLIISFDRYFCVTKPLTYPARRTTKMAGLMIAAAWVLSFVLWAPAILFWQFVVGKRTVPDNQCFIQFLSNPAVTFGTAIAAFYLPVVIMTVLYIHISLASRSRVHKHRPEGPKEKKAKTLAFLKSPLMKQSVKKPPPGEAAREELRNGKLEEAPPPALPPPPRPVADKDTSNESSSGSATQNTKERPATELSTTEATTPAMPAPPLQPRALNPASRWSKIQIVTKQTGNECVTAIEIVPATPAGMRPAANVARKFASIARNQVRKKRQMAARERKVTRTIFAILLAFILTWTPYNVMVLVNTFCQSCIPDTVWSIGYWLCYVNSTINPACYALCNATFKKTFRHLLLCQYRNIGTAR

[6] = target: T4, Muscarinic acetylcholine receptor M5 (Homo sapiens, UniProt P08912); assay: Displacement of [3H]-NMS from human muscarinic M5 receptor expressed in CHO cell membranes assessed as inhibition constant by radioligand competition analysis; set-up: species or system Cell membrane
T4 sequence (P08912 whole entry): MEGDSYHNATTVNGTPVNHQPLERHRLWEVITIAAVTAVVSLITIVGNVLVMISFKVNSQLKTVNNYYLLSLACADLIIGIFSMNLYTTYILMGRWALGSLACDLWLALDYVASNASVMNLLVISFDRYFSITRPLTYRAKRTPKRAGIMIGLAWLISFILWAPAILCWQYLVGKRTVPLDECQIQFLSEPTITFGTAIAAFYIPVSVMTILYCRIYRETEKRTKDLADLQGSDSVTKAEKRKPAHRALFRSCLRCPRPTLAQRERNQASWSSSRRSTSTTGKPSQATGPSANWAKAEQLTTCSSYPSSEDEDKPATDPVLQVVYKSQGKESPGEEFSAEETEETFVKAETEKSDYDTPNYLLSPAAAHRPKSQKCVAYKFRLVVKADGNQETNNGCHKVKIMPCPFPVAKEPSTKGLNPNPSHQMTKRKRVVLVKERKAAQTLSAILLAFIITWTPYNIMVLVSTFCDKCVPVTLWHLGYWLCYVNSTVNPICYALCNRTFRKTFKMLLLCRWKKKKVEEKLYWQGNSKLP

[7] = target: Muscarinic acetylcholine receptor M2 and M5 (Homo sapiens) (UniProt P08172+P08912); assay: Selectivity index, […] for displacement of [3H]NMS from human recombinant muscarinic receptor M5 expressed in CHO cell membranes […] for displacement of [3H]NMS from human recombinant muscarinic receptor M2 expressed in CHO cell membranes

Sequence of Muscarinic acetylcholine receptor M3 (P20309 whole entry): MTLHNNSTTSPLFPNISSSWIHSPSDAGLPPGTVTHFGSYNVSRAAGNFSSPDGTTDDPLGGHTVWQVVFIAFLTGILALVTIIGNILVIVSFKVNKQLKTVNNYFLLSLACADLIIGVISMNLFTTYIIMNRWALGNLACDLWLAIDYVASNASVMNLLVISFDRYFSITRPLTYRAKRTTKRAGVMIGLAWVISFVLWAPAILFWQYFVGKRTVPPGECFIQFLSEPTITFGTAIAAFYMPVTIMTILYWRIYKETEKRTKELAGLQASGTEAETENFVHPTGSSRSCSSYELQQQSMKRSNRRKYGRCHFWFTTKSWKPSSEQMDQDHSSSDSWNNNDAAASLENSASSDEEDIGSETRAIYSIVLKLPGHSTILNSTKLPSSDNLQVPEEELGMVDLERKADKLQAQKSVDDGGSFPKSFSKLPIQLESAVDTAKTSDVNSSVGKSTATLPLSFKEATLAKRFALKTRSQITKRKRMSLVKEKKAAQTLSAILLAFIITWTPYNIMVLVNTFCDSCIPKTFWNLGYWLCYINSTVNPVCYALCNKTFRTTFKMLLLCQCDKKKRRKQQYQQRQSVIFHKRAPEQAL

| Compound | Ki [1] | Selectivity Index [2] | Ki [3] | Ki [4] | Ki [5] | Ki [6] | Selectivity Index [7] |
| --- | --- | --- | --- | --- | --- | --- | --- |
| CCCN[C@@H](CCNC(=N)N)C(=O)N[C@@H](CCCCN)C(=O)NC(C)=O | 4470 nM |  |  |  |  |  |  |
| CCC(=O)NCCNC(=O)CCc1cn(CCCCC2CCN(CC(=O)N3c4ccccc4NC(=O)c4ccccc43)CC2)cn1 | 0.794 nM | 79 | 7.94 nM | 63.1 nM | 2.51 nM | 158 nM | 230 |
| CCCN[C@@H](CCCNC(=N)N)C(=O)N[C@@H](CCCCN)C(=O)NC(C)=O | 6460 nM |  |  |  |  |  |  |
| N=C(N)NCCC[C@@H](N)C(=O)NCCN1CCN(CCCC2CCN(CC(=O)N3c4ccccc4NC(=O)c4ccccc43)CC2)CC1 | 0.589 nM | > 160 | 11.7 nM | 251 nM | 3.98 nM | 676 nM | 1300 |
| CC(=O)N[C@@H](CCCCN)C(=O)N[C@@H](C)C(=O)N[C@@H](CCCNC(=N)N)C(=O)NCCN1CCN(CCCCC2CCN(CC(=O)N3c4ccccc4NC(=O)c4ccccc43)CC2)CC1 | 0.1 nM | 1800 | 2.51 nM | 100 nM | 2 nM | 398 nM | 4900 |
| CCCN[C@@H](CCCNC(=N)N)C(=O)N[C@@H](C)C(=O)N[C@@H](CCCCN)C(=O)NC(C)=O | 6170 nM |  |  |  |  |  |  |
| NCCN1CCN(CCCC2CCN(CC(=O)N3c4ccccc4NC(=O)c4ccccc43)CC2)CC1 | 3.55 nM |  | 44.7 nM |  | 18.6 nM |  |  |
| N=C(N)NCCC[C@H](N)C(=O)NCCN1CCN(CCCCC2CCN(CC(=O)N3c4ccccc4NC(=O)c4ccccc43)CC2)CC1 | 0.102 nM |  | 1.35 nM |  | 0.794 nM |  |  |
| CCN(CC)CCCCC1CCN(CC(=O)N2c3ccccc3NC(=O)c3ccccc32)CC1 |  | 37 |  |  |  |  |  |
| NCC(=O)NC1CCN(CC(=O)N2c3ccccc3NC(=O)c3ccccc32)CC1 | 1150 nM |  | 2950 nM |  | 1100 nM |  |  |
| NCCN1CCN(C(=O)CCCC2CCN(CC(=O)N3c4ccccc4NC(=O)c4ccccc43)CC2)CC1 | 155 nM |  | 724 nM |  | 1510 nM |  |  |
| NCCN1CCN(CC(=O)NC2CCN(CC(=O)N3c4ccccc4NC(=O)c4ccccc43)CC2)CC1 | 2450 nM |  | 47900 nM |  | 25700 nM |  |  |
| CC(=O)N[C@@H](CCCCN)C(=O)N[C@@H](CCCNC(=N)N)C(=O)NCCCCC1CCN(CC(=O)N2c3ccccc3NC(=O)c3ccccc32)CC1 | 1 nM | 6500 | 39.8 nM | 6310 nM | 63.1 nM | 316 nM | 400 |
| NC1CCN(CCCCC2CCN(CC(=O)N3c4ccccc4NC(=O)c4ccccc43)CC2)CC1 | 0.186 nM |  | 2.57 nM |  | 2.51 nM |  |  |
| N=C(N)NCCC[C@@H](N)C(=O)NCCN1CCN(CCCCC2CCN(CC(=O)N3c4ccccc4NC(=O)c4ccccc43)CC2)CC1 | 0.229 nM |  | 0.692 nM |  | 1.82 nM |  |  |
| NCCN1CCN(CCC(=O)NC2CCN(CC(=O)N3c4ccccc4NC(=O)c4ccccc43)CC2)CC1 | 23.4 nM |  | 363 nM |  | 363 nM |  |  |
| CC(=O)N[C@@H](Cc1c[nH]c2ccccc12)C(=O)N[C@@H](C)C(=O)N[C@@H](Cc1ccc(O)cc1)C(=O)NCCCCC1CCN(CC(=O)N2c3ccccc3NC(=O)c3ccccc32)CC1 |  | 56 | 100 nM | 1260 nM | 39.8 nM | 126 nM | 6.2 |
| Nc1ccccc1C(=O)N1CCC(N2CCC(Cc3ccc(S(=O)(=O)c4cccc(Cl)c4)cc3)CC2)CC1 |  |  | 324 nM |  | 91.2 nM |  |  |
